Reference: US7381537B2, “Use of inhibitors of glutaminyl cyclases for treatment and prevention of disease” (Probiodrug AG, priority 2003, dated 2008)
Entries after “also recorded” stand apart in the source; their conditions may differ. Like-named read-outs stand apart in the source and are kept apart here. Square brackets hold non-standard residues; d marks the D form. Ends that are not written are not given here. Peptide text beside a SMILES is read from it.

How the values were obtained:
[1] = test system: Glutaminyl cyclase present in the homogenate of porcine pituitary; experiment: Formation of [pGlu^3]Aβ3-11a by QC in porcine pituitary homogenate, MALDI-TOF; assay type: biochemical; details: 2 mM 1,10-phenanthroline
Procedure: (§1) Matrix-assisted laser desorption/ionization mass spectrometry was carried out using the Hewlett-Packard G2025 LD-TOF System with a linear time of flight analyzer. […] Samples (5 μl) were mixed with equal volumes of the matrix solution. For matrix solution we used DHAP/DAHC, prepared by solving 30 mg 2′,6′-dihydroxyacetophenone (Aldrich) and 44 mg diammonium hydrogen citrate (Fluka) in 1 ml acetonitrile/0.1% TFA in water (1/1, v/v). A small volume (=1 μl) of the matrix-analyte-mixture was transferred to a probe tip and immediately evaporated in a vacuum chamber (Hewlett-Packard G2024A sample prep accessory) to ensure rapid and homogeneous sample crystallization.
In case of Aβ3-21a, the assays contained 1% DMSO. At different times, samples were removed from the assay tube, peptides extracted using ZipTips (Millipore) according to the manufacturer's recommendations, mixed with matrix solution (1:1 v/v) and subsequently the mass spectra recorded.

DP IV and QC = experiment: Consecutive catalysis of DP IV and QC, crude porcine pituitary homogenate with added DPIV, MALDI-TOF; assay type: biochemical
Procedure: as §1

mammalian QC = details: Busby et al. 1987; cited from earlier work
QC [2] = target: T1, QC (Homo sapiens, UniProt Q16769); experiment: Inhibition and inactivation of human QC by chelators; assay type: biochemical; set-up: The cDNA of the mature QC starting with codon 38 was fused in frame with the plasmid encoded 6×histidine tag; 6xHis; made in house; host or cells: Pichia pastoris X33 (pPICZαB); also E. coli M15 (pQE-31)
T1 sequence (Q16769 29-361): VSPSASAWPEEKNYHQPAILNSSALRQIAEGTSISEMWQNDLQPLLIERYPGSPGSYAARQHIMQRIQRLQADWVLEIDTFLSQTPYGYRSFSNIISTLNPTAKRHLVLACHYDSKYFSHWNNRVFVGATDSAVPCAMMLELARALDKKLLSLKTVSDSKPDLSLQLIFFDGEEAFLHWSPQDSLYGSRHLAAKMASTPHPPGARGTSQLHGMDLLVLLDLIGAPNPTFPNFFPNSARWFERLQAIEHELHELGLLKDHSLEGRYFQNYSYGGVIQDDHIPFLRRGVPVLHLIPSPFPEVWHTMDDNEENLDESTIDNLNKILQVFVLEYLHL

QC [3] = target: T1, QC; experiment: Inhibitor assay: Ki determination in the human QC catalyzed reaction; assay type: biochemical; set-up: The cDNA of the mature QC starting with codon 38 was fused in frame with the plasmid encoded 6×histidine tag; 6xHis; made in house; host or cells: Pichia pastoris X33 (pPICZαB); also E. coli M15 (pQE-31); details: text of example 7
From the text: (§2) Excitation/emission wavelengths were 380/460 nm.

QC [4] = target: T1, QC; experiment: Qualitative substrate conversion by MALDI-TOF mass spectrometry, human QC; assay type: biochemical; set-up: The cDNA of the mature QC starting with codon 38 was fused in frame with the plasmid encoded 6×histidine tag; 6xHis; made in house; host or cells: Pichia pastoris X33 (pPICZαB); also E. coli M15 (pQE-31)
Procedure: Matrix-assisted laser desorption/ionization mass spectrometry was carried out using the Hewlett-Packard G2025 LD-TOF System with a linear time of flight analyzer. The instrument was equipped with a 337 nm nitrogen laser, a potential acceleration source (5 kV) and a 1.0 m flight tube. Detector operation was in the positive-ion mode and signals were recorded and filtered using LeCroy 9350M digital storage oscilloscope linked to a personal computer. Samples (5 μl) were mixed with equal volumes of the matrix solution. For matrix solution we used DHAP/DAHC, prepared by solving 30 mg 2′,6′-dihydroxyacetophenone (Aldrich) and 44 mg diammonium hydrogen citrate (Fluka) in 1 ml acetonitrile/0.1% TFA in water (1/1, v/v). […]
In order to further investigate the specificity and selectivity of the QCs, peptides were synthesized comprising either a modified N-terminal glutaminyl residue or a modified amino acid in the second position. […] Due to the cyclization of the glutaminyl residue or its analog, respectively, a mass difference of the substrate and the product of catalysis is detected. In cases of ammonia liberation of one mole per mole of substrate, the conversion was also analyzed quantitatively using the spectrophotometric assay.

[5] = Procedure: H-Glu(OMe)-βNA and H-Glu-βNA. […] These fluorogenic substrates were analyzed fluorometrically, utilizing pyroglutamyl aminopeptidase as auxiliary enzyme.
[6] = target: T2, purified DP IV (porcine kidney) (Sus scrofa, UniProt P22411); experiment: Cleavage of [Gln^3]Aβ1-11a by DP IV, MALDI-TOF; assay type: biochemical
T2 construct: purified DP IV (porcine kidney); from tissue; host or cells: porcine kidney
T2 sequence (P22411 whole entry): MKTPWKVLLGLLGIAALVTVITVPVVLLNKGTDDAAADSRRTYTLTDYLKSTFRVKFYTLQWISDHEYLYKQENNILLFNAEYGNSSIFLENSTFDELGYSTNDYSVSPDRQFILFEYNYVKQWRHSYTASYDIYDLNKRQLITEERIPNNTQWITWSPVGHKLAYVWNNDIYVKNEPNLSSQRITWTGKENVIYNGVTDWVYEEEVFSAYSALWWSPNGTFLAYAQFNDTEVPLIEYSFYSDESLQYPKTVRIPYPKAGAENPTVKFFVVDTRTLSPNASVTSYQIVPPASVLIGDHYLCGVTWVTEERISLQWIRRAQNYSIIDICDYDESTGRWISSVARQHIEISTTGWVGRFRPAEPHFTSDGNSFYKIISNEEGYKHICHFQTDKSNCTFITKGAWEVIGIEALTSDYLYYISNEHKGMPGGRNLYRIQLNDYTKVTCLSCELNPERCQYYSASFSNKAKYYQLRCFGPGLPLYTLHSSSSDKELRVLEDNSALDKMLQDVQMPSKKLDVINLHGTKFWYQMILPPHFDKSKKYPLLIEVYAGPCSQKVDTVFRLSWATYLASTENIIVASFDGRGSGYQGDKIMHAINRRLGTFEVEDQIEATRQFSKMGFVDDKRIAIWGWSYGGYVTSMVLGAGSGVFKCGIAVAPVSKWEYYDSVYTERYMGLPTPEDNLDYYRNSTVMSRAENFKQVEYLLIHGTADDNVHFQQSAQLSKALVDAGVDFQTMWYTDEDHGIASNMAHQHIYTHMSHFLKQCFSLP
Procedure: as §1

QC [7] = target: T1, QC; experiment: Reactivation of inactivated human QC with metal ions; assay type: biochemical; set-up: The cDNA of the mature QC starting with codon 38 was fused in frame with the plasmid encoded 6×histidine tag; 6xHis; made in house; host or cells: Pichia pastoris X33 (pPICZαB); also E. coli M15 (pQE-31); details: 0.5 mM metal ion in presence of 0.5 mM EDTA
Procedure: Subsequently, the enzyme was subjected to dialysis against 50 mM Bis-Tris, pH 6.8, containing 1.0 mM EDTA. Reactivation of the enzymes was achieved by incubation of the inactivated enzyme sample with metal ions at a concentration of 0.5 mM, in presence of 0.5 mM EDTA in order to avoid an unspecific reactivation by traces of metal ions present in buffer solutions. Controls are given by enzyme samples that were not inactivated, but also dialyzed against EDTA solution as the inactivated enzyme (+EDTA) and enzyme samples that were dialyzed against buffer solutions without added EDTA (−EDTA).

QC [8] = target: T1, QC; experiment: Fluorometric assay with pyroglutamyl aminopeptidase as auxiliary enzyme, human QC; assay type: biochemical; set-up: The cDNA of the mature QC starting with codon 38 was fused in frame with the plasmid encoded 6×histidine tag; 6xHis; made in house; host or cells: Pichia pastoris X33 (pPICZαB); also E. coli M15 (pQE-31); details: H-Gln-AMC as substrate
From the text: Excitation/emission wavelengths were 320/410 nm.
as §2
H-Glu(OMe)-βNA and H-Glu-βNA.

[9] = Solubility of substrates in aqueous solution
QC [10] = target: T1, QC; experiment: LC/MS-analysis of pyroglutamate formation by QC; assay type: biochemical
QC [11] = target: T1, QC; experiment: Continuous spectrophotometric assay of QC substrate conversion (glutamate dehydrogenase coupled), human QC;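 further: initial rates read in microplates at 30 °C, with enzyme activity quantified against an ammonia calibration curve recorded under the same assay conditions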
Procedure: The initial velocities were evaluated and the enzymatic activity was determined from a standard curve of ammonia under assay conditions. All samples were measured at 30° C., using either the [sequence]luor Plus or the Sunrise (both from TECAN) reader for microplates. Kinetic data was evaluated using GraFit software.

## c1cnc2c(c1)ccc1cccnc12 [1,10-phenanthroline]
[1]
  inhibition of formation of [pGlu^3]Aβ3-11a from [Gln^3]Aβ3-11a: inhibited; also recorded: inhibition
DP IV and QC
  [pGlu^3]Aβ3-11a formation from [Gln^3]Aβ1-11a in presence of catalytically active DP IV and QC: not formed; also recorded: inhibition
Mammalian QC
  inhibition of a mammalian QC: Inhibition
QC [2]; competitive and time-dependent for the chelators
  inhibition of human QC catalyzed substrate cyclization: inhibited; also recorded: reduced enzymatic activity
QC [2]; dialysis against 5 mM
  inactivation of human QC after extensive dialysis: almost completely inactivated

## Cn1cnc(CCN)c1 [1-methyl-4-(β-aminoethyl)-imidazole]
QC [3]
  inhibition of human QC, in words: complete loss of inhibitory activity

## CC(C)C[C@H](NC(=O)[C@H](CCCNC(=N)N)NC(=O)[C@H](CCCCNC(=O)[C@@H](N)CCC(N)=O)NC(=O)[C@@H](N)CCC(N)=O)C(=O)N[C@@H](C)C(N)=O [H-Gln-Lys(Gln)-Arg-Leu-Ala-NH2] (H-QK(Gln)RLA-NH2)
QC [4]
  substrate conversion (cyclization) by human QC: converted

## COC(=O)CC[C@H](N)C(=O)Nc1ccc2ccccc2c1 [H-Glu(OMe)-βNA, H-Glu(OMe)-β-naphthylamide]
[5]
  stability in Tris and Tricine buffers: remarkable instability

## CC(C)[C@H](N)C(=O)N1CCCC1 [Val-Pyrr, Val-Pyrrolidide]
[6]
  prevention of DP IV-catalysed cleavage of [Gln^3]Aβ1-11a: completely prevented
[6]; listed as Val-Pyrrolidide
  prevention of DP IV-catalysed cleavage of [Gln^3]Aβ1-11a: prevention
DP IV and QC
  [pGlu^3]Aβ3-11a formation from [Gln^3]Aβ1-11a in presence of catalytically active DP IV and QC: not formed; also recorded: reduction

## O=S(=O)([O-])[O-].[Zn+2] [ZnSO4]
QC [7]
  restoration of QC activity after inactivation: Near-total restoration

## H-Gln(NMe)-Phe-Lys-Ala-Glu-NH2 (H-[Gln(NMe)]FKAE-NH2; not fully specified; printed as H-Gln(NMe)-Phe-Lys-Ala-Glu-NH2)
QC [4]
  substrate conversion (cyclization) by human QC: No substrate conversion
QC [8]
  inhibition of human QC by the peptide: not detected

## QFRHDSGYE-NH2 [[Gln^3]Aβ3-11a]
[9]
  solubility in aqueous solution: better

## [Gln^3]-glucagon(3-29): glucagon fragment 3-29 with N-terminal glutamine
QC [10]
  formation of N-terminal pyroglutamate by QC: catalyzed by QC
QC [11]; in presence of 1% DMSO
  second order rate constant: 526000 M⁻¹ s⁻¹
QC [11]; recombinant human QC, buffer solution containing 1% DMSO
  kcat/KM: 526000 ± 17000 M⁻¹ s⁻¹

## [Gln^5]-substance P(5-11): substance P fragment 5-11 with N-terminal glutamine (QQFFGLM; ends and bridges not checked)
QC [10]
  formation of N-terminal pyroglutamate by QC: transformed by QC
